The text below walks through data of US8574563B2 (Bristol-Myers Squibb Company, priority 2006, dated 2013).

Each structure is given as a SMILES string.

Broadly, the EC50 is the concentration needed to bring the measured effect to its halfway point.

The test deals with HCV 1b-377-neo replicon cells. The experiment in a line: HCV replicon assay, HCV 1b-377-neo replicon cells (1b FRET). To be noted: Hepatitis C virus, HCV 1b-377-neo replicon cells; HCV 1b genotype; read-out: EC50 range against HCV 1b (Table 2, Range). It counts as cell-based, Hepatitis C virus genotype 1b. Summed up: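 FRET-based replicon assay in HCV 1b-377-neo cells, including a comparison line carrying the NS5A Y2065H mutation that confers resistance to a reference compound.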
In general terms: A replicon is a self-replicating genome or part of one, used to study replication in cells.
For `CCOC(=O)c1nc([C@@H]2CCCN2C(=O)[C@@H](c2ccccc2)N(C)C)[nH]c1-c1ccc(-c2ccc(-c3cnc([C@@H]4CCCN4C(=O)[C@@H](c4ccccc4)N(C)C)[nH]3)cc2)cc1` [Example J20, ethyl 2-((2S)-l-((2R)-2-(dimethylamino)-2-phenylacetyl)-2-pyrrolidinyl)-5-(4-(2-((2S)-1-((2R)-2-(dimethylamino)-2-phenylacetyl)-2-pyrrolidinyl)-1H-imidazol-5-yl)-4-biphenylyl)-1H-imidazole-4-carboxylate], the EC50 lay in the range of 0.001 to 0.999 nM.
As to `COC(=O)N[C@@H](C(=O)N1CCC[C@H]1c1ncc(-c2ccc(-c3ccc(-c4[nH]c([C@@H]5CCCN5C(=O)[C@H](NC(=O)OC)c5ccccc5)nc4C(=O)OCc4ccccc4)cc3)cc2)[nH]1)c1ccccc1` [Example J21, benzyl 2-((2S)-1-((2R)-2-((methoxycarbonyl)amino)-2-phenylacetyl)-2-pyrrolidinyl)-5-(4′-(2-((2S)-1-((2R)-2-((methoxycarbonyl)amino)-2-phenylacetyl)-2-pyrrolidinyl)-1H-imidazol-5-yl)-4-biphenylyl)-1H-imidazole-4-carboxylate], the EC50 is 0.001 to 0.999 nM.
In the case of `CN(C)[C@@H](C(=O)N1CCC[C@H]1c1ncc(-c2ccc(-c3ccc(-c4[nH]c([C@@H]5CCCN5C(=O)[C@@H](c5ccccc5)N(C)C)nc4C(=O)OCc4ccccc4)cc3)cc2)[nH]1)c1ccccc1` [Example J22, benzyl 2-((2S)-1-((2R)-2-(dimethylamino)-2-phenylacetyl)-2-pyrrolidinyl)-5-(4′-(2-((2S)-1-((2R)-2-(dimethylamino)-2-phenylacetyl)-2-pyrrolidinyl)-1H-imidazol-5-yl)-4-biphenylyl)-1H-imidazole-4-carboxylate] it was 0.001 to 0.999 nM.
As for `O=C(OCc1ccccc1)c1nc([C@@H]2CCCN2C(=O)[C@@H](c2ccccc2)N2CCCCC2)[nH]c1-c1ccc(-c2ccc(-c3cnc([C@@H]4CCCN4C(=O)[C@@H](c4ccccc4)N4CCCCC4)[nH]3)cc2)cc1` [Example J23, benzyl 2-((2S)-1-((2R)-2-phenyl-2-(1-piperidinyl)acetyl)-2-pyrrolidinyl)-5-(4′-(2-((2S)-1-((2R)-2-phenyl-2-(1-piperidinyl)acetyl)-2-pyrrolidinyl)-1H-imidazol-5-yl)-4-biphenylyl)-1H-imidazole-4-carboxylate], the EC50 lay in the range of 0.001 to 0.999 nM.
Take `COC(=O)N[C@@H](C)C(=O)N1CCC[C@H]1c1nc(C(=O)OCc2ccccc2)c(-c2ccc(-c3ccc(-c4cnc([C@@H]5CCCN5C(=O)[C@@H](C)NC(=O)OC)[nH]4)cc3)cc2)[nH]1` [Example J24, benzyl 2-((2S)-l-(N-(methoxycarbonyl)-L-alanyl)-2-pyrrolidinyl)-5-(4-(2-((2S)-l-(N-(methoxycarbonyl)-L-alanyl)-2-pyrrolidinyl)-1H-imidazol-5-yl)-4-biphenylyl)-1H-imidazole-4-carboxylate]: the half-maximal effective concentration (EC50) lay in the range of 0.001 to 0.999 nM.
`CNC(=O)c1nc([C@@H]2CCCN2C(=O)[C@H](NC(=O)OC)c2ccccc2)[nH]c1-c1ccc(-c2ccc(-c3cnc([C@@H]4CCCN4C(=O)[C@H](NC(=O)OC)c4ccccc4)[nH]3)cc2)cc1` [Example J25, methyl ((1R)-2-((2S)-2-(5-(4′-(2-((2S)-1-((2R)-2-((methoxycarbonyl)amino)-2-phenylacetyl)-2-pyrrolidinyl)-1H-imidazol-5-yl)-4-biphenylyl)-4-(methylcarbamoyl)-1H-imidazol-2-yl)-1-pyrrolidinyl)-2-oxo-1-phenylethyl)carbamate]: the concentration giving a half-maximal response (EC50) was 0.001 to 0.999 nM.
Consider `CNC(=O)c1nc([C@@H]2CCCN2C(=O)[C@@H](c2ccccc2)N(C)C)[nH]c1-c1ccc(-c2ccc(-c3cnc([C@@H]4CCCN4C(=O)[C@@H](c4ccccc4)N(C)C)[nH]3)cc2)cc1` [Example J26], for which the concentration for a half-maximal effect (EC50) was 0.001 to 0.999 nM.
As for `CNC(=O)c1nc([C@@H]2CCCN2C(=O)[C@@H](c2ccccc2)N2CCCCC2)[nH]c1-c1ccc(-c2ccc(-c3cnc([C@@H]4CCCN4C(=O)[C@@H](c4ccccc4)N4CCCCC4)[nH]3)cc2)cc1` [Example J27, N-methyl-2-((2S)-1-((2R)-2-phenyl-2-(1-piperidinyl)acetyl)-2-pyrrolidinyl)-5-(4′-(2-((2S)-1-((2R)-2-phenyl-2-(1-piperidinyl)acetyl)-2-pyrrolidinyl)-1H-imidazol-5-yl)-4-biphenylyl)-1H-imidazole-4-carboxamide], the EC50 lay within 0.001 to 0.999 nM.
With `CNC(=O)c1nc([C@@H]2CCCN2C(=O)[C@H](C)NC(=O)OC)[nH]c1-c1ccc(-c2ccc(-c3cnc([C@@H]4CCCN4C(=O)[C@@H](C)NC(=O)OC)[nH]3)cc2)cc1` [Example J28, methyl ((1S)-2-((2S)-2-(5-(4′-(2-((2S)-1-(N-(methoxycarbonyl)-L-alanyl)-2-pyrrolidinyl)-4-(methylcarbamoyl)-1H-imidazol-5-yl)-4-biphenylyl)-1H-imidazol-2-yl)-l-pyrrolidinyl)-l-methyl-2-oxoethyl)carbamate], the EC50 fell in the range of 1 to 99 nM.
Next, `COC(=O)N[C@@H](C(=O)N1CCC[C@H]1c1ncc(-c2ccc(-c3ccc(-c4[nH]c([C@@H]5CCCN5C(=O)[C@H](NC(=O)OC)c5ccccc5)nc4C(N)=O)cc3)cc2)[nH]1)c1ccccc1` [Example J29, methyl ((1R)-2-((2S)-2-(4-carbamoyl-5-(4′-(2-((2S)-1-((2R)-2-((methoxycarbonyl)amino)-2-phenylacetyl)-2-pyrrolidinyl)-1H-imidazol-5-yl)-4-biphenylyl)-1H-imidazol-2-yl)-1-pyrrolidinyl)-2-oxo-1-phenylethyl)carbamate]: 0.001 to 0.999 nM; `COC(=O)N[C@@H](C(=O)N1CCC[C@H]1c1ncc(-c2ccc(-c3ccc(-c4[nH]c([C@@H]5CCCN5C(=O)[C@H](NC(=O)OC)c5ccccc5)nc4C(=O)O)cc3)cc2)[nH]1)c1ccccc1` [Example J30]: 1 to 99 nM.
Next, `O=C(O)c1nc([C@@H]2CCCN2C(=O)[C@@H](c2ccccc2)N2CCCCC2)[nH]c1-c1ccc(-c2ccc(-c3cnc([C@@H]4CCCN4C(=O)[C@@H](c4ccccc4)N4CCCCC4)[nH]3)cc2)cc1` [Example J31, 2-((2S)-1-((2R)-2-phenyl-2-(1-piperidinyl)acetyl)-2-pyrrolidinyl)-5-(4′-(2-((2S)-1-((2R)-2-phenyl-2-(1-piperidinyl)acetyl)-2-pyrrolidinyl)-1H-imidazol-5-yl)-4-biphenylyl)-1H-imidazole-4-carboxylic acid]: 0.001 to 0.999 nM; `COC(=O)N[C@@H](C(=O)N1CCC[C@H]1c1ncc(-c2ccc(-c3ccc(-c4[nH]c([C@@H]5CCCN5C(=O)[C@H](NC(=O)OC)c5ccccc5)nc4C(F)(F)F)cc3)cc2)[nH]1)c1ccccc1` [Example J37, methyl ((1R)-2-((2S)-2-(5-(4′-(2-((2S)-1-((2R)-2-((methoxycarbonyl)amino)-2-phenylacetyl)-2-pyrrolidinyl)-1H-imidazol-5-yl)-4-biphenylyl)-4-(trifluoromethyl)-1H-imidazol-2-yl)-1-pyrrolidinyl)-2-oxo-1-phenylethyl)carbamate]: 0.001 to 0.999 nM; `COC(=O)N[C@@H](C)C(=O)N1CCC[C@H]1c1ncc(-c2ccc(-c3ccc(-c4[nH]c([C@@H]5CCCN5C(=O)[C@H](C)NC(=O)OC)nc4C(F)(F)F)cc3)cc2)[nH]1` [Example J38, methyl ((1S)-2-((2S)-2-(5-(4′-(2-((2S)-1-(N-(methoxycarbonyl)-L-alanyl)-2-pyrrolidinyl)-4-(trifluoromethyl)-1H-imidazol-5-yl)-4-biphenylyl)-1H-imidazol-2-yl)-1-pyrrolidinyl)-1-methyl-2-oxoethyl)carbamate]: 0.001 to 0.999 nM.
